Measured values taken from PMC5728361 (Structure (London, England : 1993), 2017).

Molecular target: PLC-δ1 PH domain (Homo sapiens, UniProt P51178)
Type: binding
Details: pH 7.5

PLC-δ1 PH domain, sequence (P51178 21-130): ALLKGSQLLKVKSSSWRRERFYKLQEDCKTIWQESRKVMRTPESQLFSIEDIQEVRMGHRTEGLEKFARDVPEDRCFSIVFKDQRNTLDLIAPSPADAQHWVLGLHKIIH

In the case of “L-α-phosphatidylinositol-4,5-bisphosphate [PI(4,5)P2]”, the “PIP-binding specificity of PLC-δ1 PH domain” value is reported as “binding specificity”.
